Among the data in ChEMBL document CHEMBL4627333, “Addition of ethylamines to the phenols of bithionol and synthetic retinoids does not elicit activity in gram-negative bacteria” (2020) are MIC values, retold here.

In general, MIC refers to the smallest concentration in the dilution series that meets the test's criterion for growth inhibition.

Structures are written as SMILES. Values after ≈ are worked out from the molar mass of the structure shown. Some results are limits rather than exact numbers.

In assay [1] the test system is Staphylococcus aureus. In words: Membrane disrupting activity in methicillin-resistant Staphylococcus aureus MW2 assessed as antibacterial activity by measuring inhibition of bacterial growth by CLSI-based antimicrobial dilution susceptibility method.
Assay [2] concerns Staphylococcus aureus. Briefly: Membrane disrupting activity in methicillin-resistant Staphylococcus aureus BF1 assessed as antibacterial activity by measuring inhibition of bacterial growth by CLSI-based antimicrobial dilution susceptibility method.
Assay [3] deals with Staphylococcus aureus. In words: Membrane disrupting activity in methicillin-resistant Staphylococcus aureus BF2 assessed as antibacterial activity by measuring inhibition of bacterial growth by CLSI-based antimicrobial dilution susceptibility method.
In assay [4] the test system is Staphylococcus aureus. In words: Membrane disrupting activity in methicillin-resistant Staphylococcus aureus BF3 assessed as antibacterial activity by measuring inhibition of bacterial growth by CLSI-based antimicrobial dilution susceptibility method.
The next assay deals with Pseudomonas aeruginosa. Briefly: Membrane disrupting activity in Pseudomonas aeruginosa PA14 assessed as antibacterial activity by measuring inhibition of bacterial growth by CLSI-based antimicrobial dilution susceptibility method.
The subject of the next assay is Klebsiella pneumoniae. Briefly: Membrane disrupting activity in Klebsiella pneumoniae WGLW2 assessed as antibacterial activity by measuring inhibition of bacterial growth by CLSI-based antimicrobial dilution susceptibility method. The note with it: subsp. pneumoniae WGLW2.
A further assay relates to Acinetobacter baumannii. In words: Membrane disrupting activity in Acinetobacter baumannii ATCC 17978 assessed as antibacterial activity by measuring inhibition of bacterial growth by CLSI-based antimicrobial dilution susceptibility method.

With `NCCOc1ccc(-c2ccc3cc(CO)ccc3c2)cc1C12CC3CC(CC(C3)C1)C2`, the MIC with Staphylococcus aureus [1], in the assay on Staphylococcus aureus [2], in the assay with Staphylococcus aureus [3], in the assay with Staphylococcus aureus [4], with Pseudomonas aeruginosa and in the assay with Klebsiella pneumoniae was over 64 µg/mL throughout. Further, the MIC in the assay with Acinetobacter baumannii was over 64 µg/mL.

With `NCCOc1cc(CO)cc2ccc(-c3ccc(O)c(C45CC6CC(CC(C6)C4)C5)c3)cc12`, the MIC in the assay on Staphylococcus aureus [1] was 4 µg/mL (≈ 9.02 µM); with Staphylococcus aureus [2], 4 µg/mL (≈ 9.02 µM); with Staphylococcus aureus [3] it was 4 µg/mL (≈ 9.02 µM); with Staphylococcus aureus [4], 4 µg/mL (≈ 9.02 µM); with Pseudomonas aeruginosa it was over 64 µg/mL; in the assay with Klebsiella pneumoniae, over 64 µg/mL. The MIC in the assay on Acinetobacter baumannii is over 64 µg/mL.

With `NCCOc1cc(C(=O)O)cc2ccc(-c3ccc(O)c(C45CC6CC(CC(C6)C4)C5)c3)cc12`, the MIC with Staphylococcus aureus [1] is 8 µg/mL (≈ 17.5 µM); in the assay with Staphylococcus aureus [2], 8 µg/mL (≈ 17.5 µM); in the assay with Staphylococcus aureus [3], 16 µg/mL (≈ 35 µM); in the assay with Staphylococcus aureus [4] it was 4 µg/mL (≈ 8.74 µM); in the assay with Pseudomonas aeruginosa, over 64 µg/mL; with Klebsiella pneumoniae it was over 64 µg/mL. In addition, the minimal inhibitory concentration (MIC) in the assay with Acinetobacter baumannii was over 64 µg/mL.

Consider `Oc1c(Cl)cc(Cl)cc1Sc1cc(Cl)cc(Cl)c1O` [BITHIONOL], for which the MIC was 1 µg/mL (≈ 2.81 µM) in the assay on Staphylococcus aureus [1]; 1 µg/mL (≈ 2.81 µM) in the assay on Staphylococcus aureus [2]; 1 µg/mL (≈ 2.81 µM) in the assay with Staphylococcus aureus [3]; 0.5 µg/mL (≈ 1.4 µM) in the assay on Staphylococcus aureus [4]; 32 µg/mL (≈ 89.9 µM) in the assay on Pseudomonas aeruginosa; 64 µg/mL (≈ 180 µM) with Klebsiella pneumoniae. The MIC in the assay with Acinetobacter baumannii stood at 16 µg/mL (≈ 44.9 µM).

As to `NCCOc1ccc(-c2ccc3cc(C(=O)O)ccc3c2)cc1C12CC3CC(CC(C3)C1)C2`, the MIC in the assay with Staphylococcus aureus [1], in the assay on Staphylococcus aureus [2], with Staphylococcus aureus [3], in the assay with Staphylococcus aureus [4], in the assay with Pseudomonas aeruginosa and with Klebsiella pneumoniae was over 64 µg/mL each time. For the same compound, the MIC in the assay with Acinetobacter baumannii was over 64 µg/mL.

As to `O=C(O)c1ccc2cc(-c3ccc(O)c(C45CC6CC(CC(C6)C4)C5)c3)ccc2c1` [O-DEMETHYLATED ADAPALENE], the MIC with Staphylococcus aureus [1] was 2 µg/mL (≈ 5.02 µM); with Staphylococcus aureus [2], 2 µg/mL (≈ 5.02 µM); with Staphylococcus aureus [3], 2 µg/mL (≈ 5.02 µM); with Staphylococcus aureus [4], 1 µg/mL (≈ 2.51 µM); in the assay with Pseudomonas aeruginosa, over 64 µg/mL; in the assay with Klebsiella pneumoniae, over 64 µg/mL. Moreover, the MIC in the assay with Acinetobacter baumannii was over 64 µg/mL.

Take `NCCOc1c(Cl)cc(Cl)cc1Sc1cc(Cl)cc(Cl)c1OCCN`: the MIC in the assay with Staphylococcus aureus [1] is 64 µg/mL (≈ 145 µM); in the assay with Staphylococcus aureus [2] it was 64 µg/mL (≈ 145 µM); in the assay on Staphylococcus aureus [3], 64 µg/mL (≈ 145 µM); with Staphylococcus aureus [4] it was 32 µg/mL (≈ 72.4 µM); in the assay on Pseudomonas aeruginosa, over 64 µg/mL; in the assay on Klebsiella pneumoniae, 64 µg/mL (≈ 145 µM). Moreover, the MIC in the assay with Acinetobacter baumannii came out at 64 µg/mL (≈ 145 µM).
